Measurements from patent US20240343726A1, “PYRROLOPYRIDINE-3- AND 4-CARBOXAMIDE COMPOSITIONS AND METHODS FOR CELLULAR PROLIFERATION” (The Rockefeller University, priority 2021, published 2024).
Like-named read-outs stand apart in the source and are kept apart here.

Columns and labels:
[1] = test system: phosphorylation of YAP; assay: pYAP HTRF Assay (HEK 293A Cells); format: cell-based; conditions: HEK293-A, inhibitory activity of phosphorylation of YAP, read-out: LATS1_ICKA_HEK293A IC50
Protocol: Use 3× dilution scheme in DMSO through column 10, lastly diluting further by 10× into column 11. Add 100% DMSO in serum-free and complete medium in columns 1 and 12 as a positive and negative control, respectively. To achieve a dilution of 1:500, use two 0.8 ml 96-well deep-well plates (ThermoFisher AB0765) pre-filled with the medium as intermediate (1:20) and final dilution plate (1:25). (Transfer row-wise) • Flick the cell plate carefully, three to four times or until all wells are clear of any residual liquid. Dispense 50 μL of the compound in medium into respective wells row-wise, incubate at 37° C. for 30 min • After a 30-minute incubation, flick the cell plate carefully, three to four times or until all wells are clear of any residual liquid. Dilute stock Lysis Buffer #4 (4×) in deionized water, complemented with blocking solution, the stock of which is 100×*. Add 75 μL 1× lysis buffer+blocking reagent mix into each well. Mix plate on a shaker for 30 min at room temperature • Dilute stock solution of total/phospho-YAP Eu cryptate & d2 antibody (each) in the ratio of 1:20 with detection buffer. Mix antibody solutions Eu3+ cryptate and d2 (each for total-Yap and phospho-YAP) in the ratio of 1:1*. Transfer 4 μL of the antibody mixture into two separate small-volume 384-well plates assigned for total-YAP and phospho-YAP. Give a short spin to the plates in a benchtop centrifuge set at 1000 rpm for 30 seconds • Row-wise, homogenize the lysate gently by pipetting it up and down, swirling the tip in the well to help scrape off any adherent cells (avoid bubble formation). Row-wise transfer 16 μL cell lysate into the low-volume 384-well plates with 4 μL total-YAP or phospho-YAP antibody reaction mix for a final volume of 20 μL. Spin down the plates in a benchtop centrifuge set at 1000 rpm for 30 seconds • Seal the plates using a vacuum sealer, incubate overnight at room temperature in the dark on a shaker; read the next day • Use a fluorescence emission read using compatible HTRF® reader—BioTek Synergy NEO. […] Included in Cisbio HTRF YAP total kit (#64YATPEH) & YAP phospho-S127 kit (#64YAPPEH).

[2] = target: LATS1 kinase (Homo sapiens (Human), UniProt O95835); assay: LATS1 Biochemical HTRF Assay
Chain of LATS1 kinase (O95835 589-1130): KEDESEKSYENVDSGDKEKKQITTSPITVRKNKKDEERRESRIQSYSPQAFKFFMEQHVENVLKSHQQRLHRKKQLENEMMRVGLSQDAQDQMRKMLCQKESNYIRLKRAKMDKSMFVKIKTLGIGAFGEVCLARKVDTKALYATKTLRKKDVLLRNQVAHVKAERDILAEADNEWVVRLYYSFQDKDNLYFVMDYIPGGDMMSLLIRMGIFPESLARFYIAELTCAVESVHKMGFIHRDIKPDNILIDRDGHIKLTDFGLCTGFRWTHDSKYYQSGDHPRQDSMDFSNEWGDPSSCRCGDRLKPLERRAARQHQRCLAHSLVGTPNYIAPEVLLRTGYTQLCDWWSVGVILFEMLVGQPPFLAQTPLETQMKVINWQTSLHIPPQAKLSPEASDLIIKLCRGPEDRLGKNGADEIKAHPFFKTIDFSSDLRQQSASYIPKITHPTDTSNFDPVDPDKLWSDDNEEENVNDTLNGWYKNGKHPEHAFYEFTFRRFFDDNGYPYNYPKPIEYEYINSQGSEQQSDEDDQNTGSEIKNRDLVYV
Protocol: LATS1 Biochemical HTRF Assay
MgCl2 and [1 mM] DTT. 1× Enzymatic buffer diluted from 5× Enzymatic buffer*. Add 0.5 μL of 20× compound in 100% DMSO. […] MgCl2, [1 mM] DTIT and [5 mg/mL] BSA. 5×ERR prepared from 5× Enzymatic buffer with [25 mg/mL] BSA. Mix plate on plate shaker set at 1,350 rpm for 30 seconds, then centrifuge plate at 1,000 rpm for 1 minute. Incubate for 30 minutes at 25° C. on plate shaker set to 500 rpm. […] STK Substrate 1-biotin* then add 2 μL [10 mM] ATP. Mix plate on plate shaker set at 1,350 rpm for 30 seconds, then centrifuge plate at 1,000 rpm for 1 minute. Incubate for 40 minutes at 25° C. on plate shaker set to 500 rpm. […] Streptavidin-XL665 with 1×STK Antibody-Cryptate*. Mix plate on plate shaker set at 1,350 rpm for 30 seconds, then centrifuge plate at 1,000 rpm for 1 minute. Incubate for 60 minutes at 25° C. on plate shaker set to 500 rpm, covered from light.
*(Included in Cisbio KinEASE-STK Si HTRF Kit: 62ST1PEC)

[3] = test system: adult utricular supporting cells; assay: EdU proliferation assay in cultured adult utricles; format: cell-based, mice; conditions: 5 days of treatment, control=20
Protocol: was tested in vitro to explore its mechanism of action and its utility in regenerating hair cells of the ear. The effects of the compounds were tested on utricles isolated from mice eight to twelve weeks of age. Internal ears were dissected from mice euthanized with fluothane and placed into ice-cold Hank's balanced salt solution, and cultured as previously described by Gnedeva, K. & Hudspeth [Proc. Natl. Acad Sci. 112, 14066-14071 (2015)]. For proliferation assays, utricles were cultured with 10 μM 5-ethynyl-2′-deoxyuridine (EdU) that was detected with click chemistry.
After 5 days of treatment, the N-benzyl thiazole evoked robust re-entry into the cell cycle of adult utricular supporting cells, yielding hundreds of EdU+daughter supporting cells (control=20 EdU+ supporting cells; the N-benzyl thiazole-treated=250 EdU+supporting cells; p=0.021 by an unpaired, one-tailed 1-test, control n=2, TO1 n=3).

[4] = test system: Yap; assay: Yap nuclear translocation in supporting cells of cultured utricles (immunohistochemical analysis); format: cell-based, mice; conditions: 10 μM, 24 hr of treatment, control=0.6
[5] = 2 mM ATP, read-out: LATS1_HTRF_2 mM ATP IC50

Compound	IC50 [1]	IC50 [2, 5]	EdU+ supporting cells (re-entry into the cell cycle) [3]	Yap nuclear translocation, quantified as a ratio to the constitutively expressed protein Sall2 [4]	IC50 [2]
O=C(/N=C1\SCCCN1c1ccccc1Cl)c1c[nH]c2ncccc12 [Example 28]	109 nM	1.6 nM			
O=C(/N=c1\sccn1Cc1ccccc1)c1c[nH]c2ncccc12			250	1.0	
O=C(/N=C1\SCC(CO)CN1c1ccccc1)c1c[nH]c2ncccc12 (stereo not shown) [Example 35, (Z)—N-(5-(hydroxymethyl)-3-phenyl-1,3-thiazinan-2-ylidene)-1H-pyrrolo[2,3-b]pyridine-3-carboxamide]	392 nM	3.9 nM			
O=C(/N=C1\SCCN1c1cccc(O)c1)c1c[nH]c2ncccc12 [Example 10]	39.2 nM	1.6 nM			
CN(C)Cc1cs/c(=N\C(=O)c2c[nH]c3ncccc23)n1Cc1ccccc1 [Example 65, (Z)—N-(3-benzyl-4-((dimethylamino)methyl)thiazol-2(3H)-ylidene)-1H-pyrrolo[2,3-b]pyridine-3-carboxamide]	640 nM	15 nM			
CC(O)CN1CCS/C1=N\C(=O)c1c[nH]c2ncccc12 (stereo not shown) [Example 19, (Z)—N-(3-(2-hydroxypropyl)thiazolidin-2-ylidene)-1H-pyrrolo[2,3-b]pyridine-3-carboxamide]	1720 nM	210 nM			
CNC(=O)c1cs/c(=N\C(=O)c2ccnc3[nH]ccc23)n1-c1ccccc1Cl [Example 58]	527 nM	48 nM			
CNC(=O)C1CS/C(=N\C(=O)c2c[nH]c3ncccc23)N(c2ccccc2)C1 (stereo not shown) [Example 34, (Z)-2-((1H-pyrrolo[2,3-b]pyridine-3-carbonyl)imino)-N-methyl-3-phenyl-1,3-thiazinane-5-carboxamide]	1710 nM	23 nM			
O=C(/N=c1\scc(CN2CCOCC2)n1-c1ccccc1Cl)c1c[nH]c2ncccc12 [Example 67]	147 nM	1.1 nM			
CN(C)Cc1cs/c(=N\C(=O)c2c[nH]c3ncccc23)n1-c1ccccc1Cl [Example 66, (Z)—N-(3-(2-chlorophenyl)-4-((dimethylamino)methyl)thiazol-2(3H)-ylidene)-1H-pyrrolo[2,3-b]pyridine-3-carboxamide]	327 nM	1.3 nM			
CC1(C)CS/C(=N\C(=O)c2c[nH]c3ncccc23)N1C1CCCCC1 [Example 12]	37 nM				1.1 nM
O=C(/N=C1\SCCN1c1ccccc1)c1c[nH]c2ncccc12 [Example 2]	23 nM	0.829 nM			
COc1cccc(N2CCS/C2=N\C(=O)c2c[nH]c3ncccc23)c1 [Example 9]	1740 nM				
COCCN(C)Cc1cs/c(=N\C(=O)c2c[nH]c3ncccc23)n1-c1ccccc1Cl [Example 68]	270 nM	2.8 nM			
CN(C)CC1CS/C(=N\C(=O)c2c[nH]c3ncccc23)N1c1ccccc1 (stereo not shown) [Example 14, (Z)—N-(4-((dimethylamino)methyl)-3-phenylthiazolidin-2-ylidene)-1H-pyrrolo[2,3-b]pyridine-3-carboxamide]	71 nM	4.1 nM			
CCc1ccccc1N1CCS/C1=N\C(=O)c1c[nH]c2ncccc12 [Example 4]	205 nM	4.2 nM			
O=C(/N=C1\SCCN1C1CCCCC1)c1c[nH]c2ncccc12 [Example 11]	53 nM	1.1 nM			
O=C(/N=C1\SCCN1c1ccccc1Cl)c1ccnc2[nH]ccc12 [Example 17]	1480 nM	82 nM			
O=C(/N=C1\SCCN1c1ccccc1Cl)c1c[nH]c2ncccc12 [Example 3]	5.15 nM	0.297 nM			
O=C(/N=C1\SCCN1Cc1ccccc1)c1c[nH]c2ncccc12 [Example 1, (Z)—N-(3-benzylthiazolidin-2-ylidene)-1H-pyrrolo[2,3-b]pyridine-3-carboxamide]	19.7 nM	11.2 nM			
CN(C)Cc1cs/c(=N\C(=O)c2c[nH]c3ncccc23)n1C1CCCCC1 [Example 69]	68 nM	1.8 nM			
O=C(/N=C1\SCCCN1C1CCCCC1)c1c[nH]c2ncccc12 [Example 30]	39 nM	2.9 nM			
O=C(/N=C1\SCCN1c1ccccc1O)c1c[nH]c2ncccc12 [Example 6]	1.3 nM	0.59 nM			
O=C(/N=C1\SCC(CO)N1c1ccccc1)c1c[nH]c2ncccc12 (stereo not shown) [Example 13, (Z)—N-(4-(hydroxymethyl)-3-phenylthiazolidin-2-ylidene)-1H-pyrrolo[2,3-b]pyridine-3-carboxamide]	45 nM	0.44 nM			
O=C(/N=C1\SCCCN1c1ccccc1)c1c[nH]c2ncccc12 [Example 26]	69 nM				
O=C(/N=C1\SCCCN1Cc1ccccc1)c1c[nH]c2ncccc12 [Example 25]	77 nM	2.5 nM			
O=C(/N=C1\SCCN1c1ccc(O)cc1)c1c[nH]c2ncccc12 [Example 8]	687 nM	13 nM			
O=C(/N=C1\SCCCN1c1ccccc1Cl)c1ccnc2[nH]ccc12 [Example 27]	5560 nM	200 nM			
COc1ccccc1N1CCS/C1=N\C(=O)c1c[nH]c2ncccc12 [Example 5]	1700 nM				
